# Columns and labels:
# [1] = target: T1, Peroxisome proliferator-activated receptor gamma (Homo sapiens, UniProt P37231); experiment: Displacement of Fluormone Pan-PPAR Green from human recombinant GST-tagged PPARgamma LBD (201 to 475 residues) expressed in insect cells incubated for 2 hrs in dark by LantahScreen TR-FRET assay
# T1 sequence (P37231 whole entry): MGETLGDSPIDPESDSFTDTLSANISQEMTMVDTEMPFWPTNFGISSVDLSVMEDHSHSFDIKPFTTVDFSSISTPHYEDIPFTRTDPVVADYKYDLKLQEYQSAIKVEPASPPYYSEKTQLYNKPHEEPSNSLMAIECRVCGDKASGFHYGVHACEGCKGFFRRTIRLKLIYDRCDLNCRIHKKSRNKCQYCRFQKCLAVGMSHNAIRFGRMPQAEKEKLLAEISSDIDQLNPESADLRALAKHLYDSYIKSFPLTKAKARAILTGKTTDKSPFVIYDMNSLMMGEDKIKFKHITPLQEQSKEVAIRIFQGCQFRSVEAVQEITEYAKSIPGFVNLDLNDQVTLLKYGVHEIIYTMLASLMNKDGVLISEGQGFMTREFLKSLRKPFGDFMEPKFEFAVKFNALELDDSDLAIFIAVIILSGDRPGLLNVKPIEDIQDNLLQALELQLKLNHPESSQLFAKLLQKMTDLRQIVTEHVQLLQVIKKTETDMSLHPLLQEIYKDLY
# [2] = target: T2, Peroxisome proliferator-activated receptor gamma (Homo sapiens) (UniProt P37231); experiment: Antagonist activity at PPAR-gamma (unknown origin) transfected in human HEK293 cells assessed as decrease in rosiglitazone-induced receptor transactivation at 10 uM by dual-luciferase reporter gene assay relative to control; type: cell-based; settings: filed as antagonist
# T2 sequence (whole entry): T1 sequence (P37231 whole entry)
# [3] = target: T2, Peroxisome proliferator-activated receptor gamma (Homo sapiens); experiment: Antagonist activity at PPAR-gamma (unknown origin) transfected in human HEK293 cells assessed as decrease in rosiglitazone-induced receptor transactivation at 1 uM by dual-luciferase reporter gene assay relative to control; type: cell-based; settings: filed as antagonist
# [4] = Induction of insulin-sensitizing activity in insulin-resistant human HepG2 cells assessed as increase in glucose consumption at 0.1 uM relative to control; type: functional
# [5] = Induction of insulin-sensitizing activity in insulin-resistant human HepG2 cells assessed as glucose consumption at 0.1 uM (reference value: 5.83 +/-0.101 mM); type: functional
# [6] = Induction of insulin-sensitizing activity in insulin-resistant mouse 3T3-L1 cells assessed as glucose consumption at 0.1 uM (reference value: 3.354 +/- 0.342 mM); type: functional
# [7] = Induction of insulin-sensitizing activity in insulin-resistant mouse 3T3-L1 cells assessed as increase in glucose consumption at 0.1 uM relative to control; type: functional
# [8] = Induction of insulin-sensitizing activity in insulin-resistant mouse 3T3-L1 cells assessed as increase in glucose consumption at 0.1 uM relative to rosiglitazone; type: functional
# [9] = target: T3, Peroxisome proliferator-activated receptor gamma (Mus musculus, UniProt P37238); experiment: Agonist activity at PPAR-gamma in mouse 3T3-L1 cells assessed as increase in adipogenesis by measuring increase in oil red staining at 1 uM by Oil-red O staining based analysis relative to control; type: toxicity, cell-based; settings: 3t3-l1, 1 µM
# T3 sequence (P37238 whole entry): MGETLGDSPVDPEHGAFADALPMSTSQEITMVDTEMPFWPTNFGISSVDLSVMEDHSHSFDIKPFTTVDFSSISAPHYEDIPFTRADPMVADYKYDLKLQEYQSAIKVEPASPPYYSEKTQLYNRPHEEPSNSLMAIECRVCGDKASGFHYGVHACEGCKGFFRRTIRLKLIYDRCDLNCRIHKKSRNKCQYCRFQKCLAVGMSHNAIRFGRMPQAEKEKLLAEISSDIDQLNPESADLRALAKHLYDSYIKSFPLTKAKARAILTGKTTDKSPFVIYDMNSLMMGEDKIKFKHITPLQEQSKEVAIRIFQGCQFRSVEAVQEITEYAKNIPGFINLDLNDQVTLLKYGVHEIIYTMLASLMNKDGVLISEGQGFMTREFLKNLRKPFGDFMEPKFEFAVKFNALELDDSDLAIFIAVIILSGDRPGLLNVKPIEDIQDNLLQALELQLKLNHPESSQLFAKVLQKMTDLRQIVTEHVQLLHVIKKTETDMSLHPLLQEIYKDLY
# [10] = species: Mus musculus; experiment: Hypoglycemic activity in db/db mouse assessed as AUC of blood glucose level by oral glucose tolerance test (reference value: 114.8 mmol.min/L); type: functional
Compound,IC50 [1] [nM],inhibition [2] [%],inhibition [3] [%],Activity [4] [%],Activity [5] [mM],Activity [6] [mM],Activity [7] [%],fold change (FC) [8],Activity [9] [%],AUC [10] [mmol·min/L]
Cc1c(C)n(Cc2ccc(C(C)(C)C(=O)O)cc2)c2ccc(C(=O)N[C@@H](C)c3cccc(C4CC4)c3)cc12,108,–,–,–,–,–,–,–,–,–
COc1cc(O)c(C(=O)O)c(CC(=O)c2cccc(-c3ccccc3Cl)c2)c1CC=C(C)C,–,96.2,50.2,33.27,7.771,6.471,72.61,1.6,7.04,106

# — ChEMBL document CHEMBL5236599, “Design, synthesis and biological evaluation of cajanonic acid A analogues as potent PPAR γ antagonists” (Bioorg Med Chem Lett, 2023)
